This is an account of results in publication PMC6237130, “Disarming the virulence arsenal of Pseudomonas aeruginosa by blocking two-component system signaling” (Chemical Science, 2018).

“Also recorded” adds a separate entry of the source. Some results are limits rather than exact numbers.

The subject of data set [1] is P. aeruginosa PA14. The experiment in a line: Swarming assay. Particulars: 200 μM; for Swarming motility: after 5 days. In kind it is cell-based, Pseudomonas aeruginosa. The procedure:
(§1) Swarming assays and quantification of rhamnolipids in swarm-plates
(§2) We followed the revised protocol developed by Trembley et al. for P. aeruginosa swarm assays.6 Plates consisted of modified M9 medium [20 mM NH4Cl; 12 mM Na2HPO4; 22 mM KH2PO4; 8.6 mM NaCl; 1 mM MgSO4; 1 mM CaCl2•2H2O; 11 mM dextrose; 0.5% casamino acids (Difco)] solidified with Bacto-agar (Difco). The M9 media without MgSO4 and CaCl2•2H2O was autoclaved, which were added after cooling the media ~60 °C. The pH was adjusted after autoclaving with HCl and NaOH (pH = 7.5). Then, a 1-in-100 dilution of filter-sterile stock containing 1 mg/mL Nile red (Sigma Aldrich) dissolved in 85% ethylene glycol and added (prepared the day of use to limit photoinactivation).7 Twenty mL of this media was poured into […]
(for the control experiments, same amount of DMSO was added). Plates were allowed to dry for 60 min, with the first 20 min under UV light to ensure plates were sterile following pH adjustment. P. aeruginosa PA14 strain was grown overnight (~16 h) in LB media at 37 °C and 200 RPM. Five µl of bacteria were spotted at the center of each plate, which were incubated at 30 °C in the dark and ~20% humidity. The plates were intermittently taken out for fluorescence scanning [scan settings: GE Typhoon Variable Mode Imager 9500, using 532-nm laser with DY-520XL (λex: 520 nm, λem: 664 nm)]. The scans were visualized and integrated density measurements of whole-plate fluorescence was measured using ImageJ software. Images of these plates were also taken with a Nikon D5200 DSLR camera, which were processed in Adobe Photoshop Lightroom 5 (Mac version) for phase-contrast.
Figure S9. Swarming motility of PA14 in the presence of Rilu-inhibitors at 200 µM after 5 days.
(§3) The top images are fluorescence scans for detecting Nile Red and the bottom images were taken

Data set [2] deals with P. aeruginosa PA14. The experiment in a line: RT-qPCR of virulence and TCS genes in PA14. The data set is classed as cell-based, Pseudomonas aeruginosa. Particulars: PA14, 9 h, 200 and 500 μM. As to the method: RNA isolation, Reverse Transcriptase -qPCR experiments
(§4) P. aeruginosa PA14 strain was grown overnight (~16 h) in LB media at 37 °C and 200 RPM.
The overnight culture was diluted 1:100 in fresh LB media. Four mL of this culture was then taken in a 15 mL borosilicate glass tube, to which Rilu-inhibitors in DMSO were added to a final concentration of 200 µM or 500 µM (for the control experiments, same amount of DMSO was added). These cultures were then grown for 9 h (late exponential phase) at 37 °C and 200 RPM, OD620 ~0.7. Total RNA was extracted from ~2 mL cell pellet using an RNAEasy Mini kit (Qiagen), according to the manufacturer’s instructions, including exogenous DNase treatment with Ambion Turbo-DNAse Kits. RNA integrity was confirmed by native gel electrophoresis and the quantities were measured using a nanophotometer. cDNA was generated using the DNA-free total RNA using (Applied Biosystems High Capacity cDNA Reverse Transcription Kits) random-primed reverse transcriptase reaction following the manufacturer’s protocol. The cDNA was used as template for quantitative PCR (BioRad MyiQ2 dual-color system) using the SYBR Green detection system (BioRad) on white 96-well PCR plates. Melt curves were obtained for every run, and any wells with multiple peaks were excluded from analysis. Signal was standardized to 2 housekeeping genes, recA, rpoD using the ∆∆C method equation:8 Relative […]
expression = 2(CT standard −C T sample), where CT (cycle time) was determined automatically by the Real Time iQ5 PCR software (BioRad). Primers (Integrated DNA Technologies) for RT-qPCR were designed using NCBI Primer-Blast software. Criteria for primer design were a […]
; primer size = 18 –22 bp; product size = 80–130 bp; product Tm
= 60– 90 °C. Samples were assayed in triplicate and statistical analyses was done with one-way ANOVA (Origin 9.1 software).
Table S5. List of primer pairs used in qPCR
Target gene Forward Reverse […]

Data set [3] has as its system P. aeruginosa PA14. Kind of data set: Growth of PA14 cultures with inhibitors (OD620, CFU). In kind it is cell-based, Pseudomonas aeruginosa. Particulars: for Bacteriostatic and bactericidal properties in PA14 cultures: OD620 measurements and CFU studies, even at high concentrations (500 μM); for t = 9 h, OD620 / t = 24 h, OD620: Table S3, PA14 cultures for metabolomics, 200 µM, 37 °C.
Method: The overnight culture was diluted 1:100 in fresh LB media. 4 mL of this culture was then put
into a 15 mL borosilicate glass tube, to which Rilu-inhibitors in DMSO were added to a final
concentration of 200 µM and 500 µM (for the control experiments, the same amount of DMSO
was added). These cultures were grown for 24 h at 37 ° C and 200 RPM, and their OD620 values
were measured using a spectrophotometer at various time points.
200 µM and 500 µM after 16 h at 37 °C.

The target of data set [4] is T1, HK853 (Thermotoga maritima, UniProt Q9WZV7). Kind of data set: HK853 aggregation analysis (native-PAGE). The note with it: for Compound-induced HK853 aggregation: native-PAGE, Fig. S3. The procedure: HK853 Aggregation Analysis
T1 sequence (Q9WZV7 entry or part of it): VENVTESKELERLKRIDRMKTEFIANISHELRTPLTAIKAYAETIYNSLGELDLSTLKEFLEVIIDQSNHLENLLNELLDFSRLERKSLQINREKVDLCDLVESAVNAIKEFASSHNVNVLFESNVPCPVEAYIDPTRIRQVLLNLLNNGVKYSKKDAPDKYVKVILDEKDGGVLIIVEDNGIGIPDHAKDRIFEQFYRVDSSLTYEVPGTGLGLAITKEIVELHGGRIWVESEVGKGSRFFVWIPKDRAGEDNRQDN
To analyze the propensity for compounds to cause aggregation, each was mixed at six […]
(5% (v/v) DMSO final). After incubating at RT for 30 min, 8.6 µL native-PAGE sample loading buffer was added, and 15 µL was loaded onto a 7.5% polyacrylamide gel. Proteins were resolved by native-PAGE and silver staining. Compound-induced aggregation was detected by the disappearance of the dimeric HK853 band. NH125 (Tocris Bioscience) was used as a positive […]

In data set [5] the test system is P. aeruginosa PA14. Kind of data set: Quantification of rhamnolipids in swarm-plates (Nile red, ImageJ). Particulars: 200 μM, Nile red fluorescence, quantified with ImageJ. In kind it is cell-based, Pseudomonas aeruginosa. The procedure: as §1, §2
(for the control experiments, same amount of DMSO was added). Plates were allowed to dry for 60 min, with the first 20 min under UV light to ensure plates were sterile following pH adjustment. […] The plates were intermittently taken out for fluorescence scanning [scan settings: GE Typhoon Variable Mode Imager 9500, using 532-nm laser with DY-520XL (λex: 520 nm, λem: 664 nm)]. The scans were visualized and integrated density measurements of whole-plate fluorescence was measured using ImageJ software. […]
as §3

The subject of data set [6] is P. aeruginosa PA14. Kind of data set: Rapid attachment assay. In kind it is cell-based, Pseudomonas aeruginosa. Particulars: PA14, 60 min adhesion, relative to DMSO control. As to the method: as §4
The overnight cultures were washed and diluted in LB medium to an OD620 value of 1.0. 100 µL of this suspension was used to inoculate each well of a microtiter plate in presence of Rilu-inhibitors in DMSO at 200 µM or 500 µM (for the control experiments, same amount of DMSO was added). Eight wells per plate were used for each sample. Cells were allowed to adhere for 60 min at 37 °C and 200 RPM. After the planktonic cells were removed, staining with crystal violet was carried out, as described in the biofilm assay procedure. Assays were repeated in triplicate.

Data set [7] deals with P. aeruginosa PA14. Kind of data set: LC-MS/MS analyses of metabolites in PA14 culture supernatant. The note with it: 200 μM, 9 h, 37 °C, relative to DMSO control. In kind it is cell-based, Pseudomonas aeruginosa.
Method: LC-MS analyses of metabolites
The overnight culture was diluted 1:100 in fresh LB media. 4 mL of this culture was added into a 15 mL borosilicate glass tube, to which Rilu-inhibitors in DMSO were added to a final concentration of 200 µM (for the control experiments, same amount of DMSO was added).
These cultures were grown for 9 h (late exponential phase) or 24 h (stationary phase) at 37 °C and 200 RPM. The OD620 values were measured using a spectrophotometer. 1 mL of each culture was placed in a 1.7 mL Eppendorf tube, centrifuged at 5,000 g for 5 min and the supernatant was removed from the cell pellets. The supernatants were directly analyzed on an ESI-LC-MS/MS instrument for metabolites and the cell pellets (from 9 h cultures) were further used for RNA extraction in q-PCR experiments.
Injections of 2 µ L were separated on Zorbax Eclipse plus C18 column (2.1 mm x 50
MeOH:5% water with 0.1% formic acid). The metabolites were separated using an isocratic elution of 100% for 0-3 min, then a 3-17 min linear gradient to 100% B, and 17-20 min of 100% B at a constant flow rate of 0.4 ml/min. Samples were measured in positive ion mode and data was collected in triplicate. Data were analyzed using the Agilent MassHunter Quantitative Analysis suite. From the extracted ion chromatograms (EICs) of the respective metabolite signals, the peak areas were normalized to the OD620 growth values of the respective cultures. All of the peak areas of the treated samples were plotted by considering the DMSO-control sample to be 100% abundance.
In data set [8] the test system is P. aeruginosa PA14. The experiment in a line: Biofilm assay (microtitre, crystal violet). The data set is classed as cell-based, Pseudomonas aeruginosa. The note with it: high concentrations, PA14, 24 h, relative to DMSO control. The procedure: as §4
The overnight culture was diluted 1:100 in fresh LB media. 200 µL of this culture was then used to inoculate each well of a microtiter plate, to which Rilu-inhibitors were added in DMSO to final concentration of 200 µM or 500 µM (for the control experiments, same amount of DMSO was added). Eight wells per plate were used for each sample. These cultures were grown for 24 h at 37 °C without shaking. After growth, the planktonic cultures were carefully removed to a new microtitre plate to measure the OD620 values. The adhered cells were washed carefully three times with sterile PBS buffer, and then the cells were fixed with MeOH for 20 min. After removing the MeOH, the wells were allowed to dry for 10 min, followed by addition of 0.1% crystal violet. After 15 min of incubation, the stain was carefully removed without touching the rest of the plate. The excess stain was washed away 3 times from the wells with distilled water and the plate was allowed to dry for ~1 h. Finally, the adhered stain was redissolved in 30% acetic acid solution (for 1 h) and absorbance was measured at 595 nm. Assays were repeated in […]
Figure S8. (a) Different stages of biofilm formation. (b) Biofilm formation assessment. All values are plotted relative to a DMSO-treated control and normalized to the final cell density (OD620). […]

The test system of data set [9] is Vero cells. The arrangement: method as in PMID 25531939. Particulars: at <180 μM; cited from earlier work.
The target in data set [10] is T1, HK853. The experiment in a line: Inhibition of HK853 activity (BODIPY-ATPγS competition, HK autophosphorylation). In kind it is biochemical. Particulars: for IC50 values for HK853 inhibitory activity: Fig. 1b and text, HK autophosphorylation; for IC50 values (µM) (95% confidence interval), n = 2: Table S1, HK853 inhibition.
Method: Inhibition of HK853 Activity
Triton X-100 was premixed with reaction buffer to yield 0.1% (v/v) in final
25-µL reactions. In reaction buffer, 1 µM HK853 was preincubated with test compounds (final
1 µL BODIPY -ATPγS was added to bring
competitors and 5% DMSO. Samples were mixed and incubated in the dark at RT for 1 h before
quenching with 8.6 µL 4× SDS-PAGE sample loading buffer and loading 15 µL on a 10%
stacking gel. After SDS-PAGE, in-gel fluorescence detection elucidated HK853 activity, and
coomassie staining of the gels ensured even protein loading. Integrated density values of the
fluorescent gel bands were normalized as “% Activity” with respect to a control that contained
no inhibitor. Data were plotted in GraphPad Prism with relation to the log of molar inhibitor to
(control FP competition and activity assays), data were fit to a four-parameter logistic equation,
where y is the response, Bottom and Top are plateaus in the units of the y-axis, x is the log of the
molar concentration of inhibitor, HillSlope is the slope of the curve, and IC50 is the concentration
As a result, IC50 values were estimated by constraining the bottom of the curve to

With `Nc1nc2ccc([N+](=O)[O-])cc2s1` [Rilu-4], the Swarming motility entry in [1] was “moderate difference in swarming”. Moreover, the “Effect on expression of virulence-associated genes (pqsR, fleQ and pilA)” value (from here on “Effect on expression”) in data set [2] is “substantially downregulated”. In addition, in [3], the “Bacteriostatic and bactericidal properties in PA14 cultures” value is listed as “None of these compounds substantially slowed growth or killed the organism”; the “t = 9 h, OD620” value is 0.842; the “t = 24 h, OD620” value was 1.65. Besides, the “Compound-induced HK853 aggregation” value in data set [4] was “non-aggregators”.

Regarding `Nc1nc2ccc(OC(F)(F)F)cc2s1` [Rilu-1, riluzole, reference compound], in [1], the Swarming motility entry is reported as “moderate difference in swarming”. Further, the “Bacteriostatic and bactericidal properties in PA14 cultures” value in data set [3] is listed as “None of these compounds substantially slowed growth or killed the organism”. Moreover, the “Compound-induced HK853 aggregation” value in [4] is recorded as “non-aggregators”.

Regarding `Nc1nc2cc3sc(N)nc3cc2s1` [Rilu-12], the “Swarming motility, tendril formation” value in data set [1] (after 40 h) was “most prominently”. Besides, the Swarming motility entry in data set [1] is given as “major impairment in motility”. The “Reduction of RL production on swarm agar plates” value in data set [5] is 70%. Moreover, the “Reduction in surface attachment” value in data set [6] was determined as 70%. In addition, the “Amount of PCA produced” value in [7] is about 8%. Also, the “Effect on expression” value in data set [2] is “substantially downregulated”. In data set [3], the “Bacteriostatic and bactericidal properties in PA14 cultures” value is “None of these compounds substantially slowed growth or killed the organism”; the “t = 9 h, OD620” value was 0.883; the “t = 24 h, OD620” value is reported as 1.65. Also, the “Compound-induced HK853 aggregation” value in [4] is on record as “non-aggregators”.

Regarding `Cc1nc2ccc(N)cc2s1` [Rilu-7], the “Effect on expression” value in data set [2] is “does not significantly affect”.

Regarding `CCCCCCCCCCCCCCCCn1cc[n+](Cc2ccccc2)c1C.[I-]` [NH-125, reference compound], the “Concentration causing disappearance of the protein dimer band (protein aggregation)” value in [4] (native-PAGE of HK853, positive aggregation control) is recorded as at least 10 µM.

As to `Nc1nc2ccc(Oc3ccc4nc(N)sc4c3)cc2s1` [Rilu-2], in data set [8], the “Reduction of biofilm mass” value is recorded as 25%. In addition, the “Cytotoxicity to Vero cells” value in data set [9] is on record as “not cytotoxic”. Also, in data set [7], the “Reduction of PCN” value was about 85% and the “Reduction of PYO” value came out at 70%. In addition, in [3], the “Bacteriostatic and bactericidal properties in PA14 cultures” value is on record as “None of these compounds substantially slowed growth or killed the organism”; the “t = 9 h, OD620” value came out at 0.851; the “t = 24 h, OD620” value was determined as 1.60. For the same molecule, the “Compound-induced HK853 aggregation” value in [4] is “non-aggregators”.

`Nc1nc2cc(Br)c(Br)cc2s1` [Rilu-11]: in data set [10], the “IC50 values for HK853 inhibitory activity” value is “No inhibition; also recorded: inactive” and the “IC50 values (µM) (95% confidence interval), n = 2” value was “No Inhibition”.

`Nc1nc2c(Cl)cc(Cl)cc2s1` [Rilu-10]: in data set [10], the “IC50 values for HK853 inhibitory activity” value was “No inhibition; also recorded: inactive” and the “IC50 values (µM) (95% confidence interval), n = 2” value was “No Inhibition”.
